Laboratory results reported in patent publication US10471032B1, “Substituted glutaurine compounds and substituted glutaurine derivatives” (ThermoLife International, LLC, priority 2013, dated 2019).

Columns and labels:
[1] = test system: estradiol and total testosterone; settings: men treated, Taxel et al. (2001); cited from earlier work
[2] = test system: triiodothyronine (T3); assay: Total T3 level in blood samples during oral administration to a human subject; type: in vivo; settings: for T3: total T3, blood, one human subject, Day 0 before dosing 91
Method: (§1) To evaluate the effect of administration of glutaurine on estradiol and thyroid hormone levels in a human subject, approximately 800 micrograms (mcg) per day of glutaurine were administered orally to the subject over a period of about one month. At Day 0 prior to administration of the glutaurine and at Day 4 and Day 28 during administration of the glutaurine blood samples were collected and analyzed for the levels of estradiol, thyroid stimulating hormone (TSH), and the thyroid hormones triiodothyronine (T3) and thyroxine (T4). Total amounts of T3 and T4 were measured in the blood samples.

[3] = test system: thyroxine (T4); assay: Total T4 level in blood samples during oral administration to a human subject; type: in vivo; settings: for T4: total T4, blood, one human subject, Day 0 before dosing 8.3
Method: as §1

[4] = test system: thyroid stimulating hormone (TSH); assay: TSH level in blood samples during oral administration to a human subject; type: in vivo; settings: for TSH: blood, one human subject, Day 0 before dosing 3.01
Method: as §1

[5] = test system: human subject; assay: Subject-reported effects during administration; type: in vivo; settings: oral approx. 800 mcg/day
Method: as §1
The subject also reported fat loss as a result of the glutaurine administration.

[6] = test system: estradiol; assay: Estradiol level in blood samples during oral administration to a human subject; type: in vivo; settings: for Estradiol: blood, one human subject, Day 0 before dosing 36
Method: as §1

[7] = oral approx. 800 mcg/day for about one month, human subject
[8] = Day 4 of oral approx. 800 mcg/day
[9] = Day 28 of oral approx. 800 mcg/day
[10] = indicative of rising energy expenditure and metabolism

Row | Compound | change in estradiol [1] | change in total testosterone [1] | change in T3 levels [2, 7] | T3 [2, 8] | T3 [2, 9] | change in T4 levels [3, 7] | T4 [3, 8] | T4 [3, 9] | TSH [4, 8] | TSH [4, 9] | change in TSH levels [4, 7] | body fat (subject-reported) [5] | body temperature (subject-reported) [5, 10] | sweating (subject-reported) [5, 10] | Estradiol [6, 8] | Estradiol [6, 9] | change in estradiol levels [6, 7]
1 | CC(C)(C#N)c1cc(Cn2cncn2)cc(C(C)(C)C#N)c1 [anastrozole] | significant decrease | increase | – | – | – | – | – | – | – | – | – | – | – | – | – | – | –
2 | NC(CCC(=O)NCCS(=O)(=O)O)C(=O)O (centres unmarked) [glutaurine] | – | – | consistent increase | 96 ng/dL | 109 ng/dL | slightly reduced | 7.9 µg/dL | 7.3 µg/dL | 3.28 mIU/L | 2.74 mIU/L | no significant change | fat loss | increased body temperature | increased sweating | 32 pg/mL | 30 pg/mL | marked decrease
